In US11958812B2, “3, 5-disubstituted pyridine and 3, 5-disubstituted pyridazine derivatives and pharmaceutical use of same” (MITSUBISHI TANABE PHARMA CORPORATION, priority 2018, dated 2024):

Legend:
[1] = biological target: T1, ATX activity in plasma (Rattus norvegicus, UniProt Q64610); assay: Measurement of ATX activity in plasma (ex vivo), rat single administration test; design: species or system male Wistar rat
T1 construct: from tissue; host or cells: plasma of male Wistar rats after oral dosing
Protocol: [Measurement of ATX Activity in Plasma (Ex Vivo)]
A compound administration solution prepared by wet pulverization in a mixer mill (type: MM400) for 10 min and adjusting to a given concentration with 0.5% aqueous carboxymethylcellulose solution was orally administered to male Wistar rat (5-week-old when used) at 5 mL/kg. Blood samples were collected from the cervical vein over time at 8 to 24 hr after administration. The blood was heparin-treated using a micro blood collection tube Capiject (CJ-AL, TERUMO CORPORATION), and the plasma was separated by centrifugation (4° C., 12,000 rpm, for 2 min), and preserved at −80° C. The rats after blood sampling were euthanized by exsanguination from the caudal vena cava under isoflurane inhalation anesthesia. The measurement of ATX activity in plasma was evaluated using the concentration of choline in the plasma, which was liberated from lysophosphatidylcholine (substrate of ATX) by the lysophospholipase D activity of ATX, as an index. An equal amount of 2× assay buffer (200 mM Tris-HCl pH9.0, 10 mM MgCl2, 1 M NaCl, 0.1% Triton X-100) is added to plasma (12 μL) and reacted at 37° C. for 6 hr. The reaction mixture (10 μL) after reaction for 6 hr and 45 μL of reagent R^1 solution (100 mM Tris-HCl pH 8.0, 0.5 mM TOOS, 10 U/mL peroxidase, 0.01% Triton X-100) were added and blended and absorbance at 550-700 nm was measured and used as a prevalue. As the standard, choline chloride was used. 1 mM choline chloride was diluted with 2× assay buffer up to 7 steps in 2-fold serial dilution, R^1 solution was treated similarly and the absorbance was measured. Furthermore, 15 μL of reagent R^2 solution (100 mM Tris-HCl pH 8.0, 1 mM 4-aminoantipyrine, 10 U/mL choline oxidase, 0.01% Triton X-100) was added, and the mixture was reacted at room temperature for 10 min, and absorbance at 550-700 nm was measured. The choline concentration per reaction time was calculated from the difference between the absorbance after R^2 solution addition and prevalue measured before R^2 addition and used as ATX activity value. inhibitory activity (%)=100×{1−[choline concentration (μM) of test substance administration group/choline concentration (μM) of solvent control group]} <calculating formula>

[2] = biological target: human recombinant ATX (Homo sapiens, UniProt Q13822); assay: Enzyme inhibition test (choline release from LPC, Amplex UltraRed fluorescence); type: biochemical; conditions: 200 μM LPC substrate, 1 hr at room temperature, read-out: Experimental Example 1 human ATX IC50
Procedure, shortened: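 Recombinant human ATX (enzyme solution 0.4 ng/µL) acted on a mix of 200 µM LPC, Amplex UltraRed, peroxidase and choline oxidase in Tris pH 8.0 buffer with BSA and 0.0025% Triton X-100, 1 h at room temperature. Choline was read by fluorescence (Ex 525/Em 598 nm) against a choline chloride standard. IC50 came from % inhibition relative to enzyme-free and inhibitor-free controls.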

Compound | Experimental Example 2 Rat single administration test (inhibitory activity (%) 8 hr after 1 mg/kg oral administration) [1] [%] | IC50 [2] [µM]
COc1cc(C2CN(c3cncc(OC[C@H]4CC[C@H](C(F)(F)F)CC4)c3)CCO2)ccc1C(=O)O (some centres unmarked) [Example 46] | 74 | 0.002
O=C(O)CC[C@H]1CN(c2cncc(OCc3ccc(OC(F)(F)F)cc3F)c2)CCO1 [Example 82] | 89 | 0.019
Cc1cc(OC(F)(F)F)ccc1COc1cncc(N2CCO[C@@H](CCC(=O)O)C2)c1 [Example 83] | 89 | 0.008
O=C(O)CC[C@H]1CN(c2cncc(OCc3ccc(OC(F)(F)F)c(F)c3)c2)CCO1 [Example 84] | 89 | 0.021
C[C@@H]1CN(c2cncc(OCc3ccc(OC(F)(F)F)cc3)c2)C[C@H](CCC(=O)O)O1 [Example 87] | 95 | 0.016
O=C(O)CC1CCCN(c2cncc(OCc3ccc(OC(F)(F)F)cc3)c2)C1 (centres unmarked) [Example 92] | 73 | 0.057
O=C(O)CCC1CN(c2cncc(OCc3ccc(OC(F)(F)F)cc3)c2)CCN1CC(F)(F)F (centres unmarked) [Example 93] | 70 | 0.039
